Assay results reported in publication doi:10.1101/2023.02.27.530254, “Large library docking for cannabinoid-1 receptor agonists with reduced side effects” (bioRxiv, 2024).
pEC50, pKi: −log10 of the molar value. Values joined by “and” are separate entries in the source; they are usually repeats but may differ in a detail not shown here. Identical values can stand only once. Like-named read-outs stand apart in the source and are kept apart here.

Tests used:
C56BL/6 mice [1] = test: Acute thermal pain tests (tail flick, hot plate, Hargreaves); type: in vivo, mouse; conditions: for tail flick latency of co-injection with morphine (3.0 mg/kg, i.p.) versus morphine alone: 0.05 and 0.1 mg/kg; for analgesic effect under CB1R knockout or AM251 (5.0 mg/kg) pre-treatment: tail flick assay; for lowest dose with significant analgesia (latencies above baseline): tail flick, hot plate and Hargreaves tests, i.p.
C56BL/6 mice [2] = test: Open field test of hypolocomotion; type: in vivo, mouse; conditions: for motor effect versus vehicle at analgesic doses: open field and rotarod tests
Description: Thirty minutes after i.p. injection, mice were placed in the center of a round open-field (2 feet diameter) and their exploratory behavior recorded over the next 15 minutes. Distance traveled was used to represent open field behavior.

hCB1 [3] = biological target: T1, hCB1 (Homo sapiens, UniProt P21554); test: Tango β-arrestin-2 recruitment assay, HTLA cells; type: cell-based; parameters: expressed in transfected cells; conditions: for Emax: HTLA, read-out: hCB1 Tango ß-arrestin recruitment Emax [95% CI]
T1 sequence (P21554 whole entry): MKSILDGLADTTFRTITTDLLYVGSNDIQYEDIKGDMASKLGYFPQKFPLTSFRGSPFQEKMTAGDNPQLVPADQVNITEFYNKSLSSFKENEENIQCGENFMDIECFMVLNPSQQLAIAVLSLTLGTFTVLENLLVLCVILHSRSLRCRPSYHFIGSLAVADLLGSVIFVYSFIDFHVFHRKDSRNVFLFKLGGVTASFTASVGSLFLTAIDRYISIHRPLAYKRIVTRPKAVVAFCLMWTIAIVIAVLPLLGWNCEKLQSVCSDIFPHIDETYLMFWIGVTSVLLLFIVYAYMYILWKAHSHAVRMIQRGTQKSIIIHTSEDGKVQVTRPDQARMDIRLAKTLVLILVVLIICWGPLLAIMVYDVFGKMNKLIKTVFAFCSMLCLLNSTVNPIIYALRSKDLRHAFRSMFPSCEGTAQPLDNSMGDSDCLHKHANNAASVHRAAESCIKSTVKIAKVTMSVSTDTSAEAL
Description: The Tango β-arrestin-2 recruitment assays were performed as described. In brief, HTLA cells were transiently transfected with human CB1R or CB2R Tango DNA construct overnight in DMEM supplemented with 10 % FBS, 100 μg ml−1 streptomycin and 100 U ml−1 penicillin. The transfected cells were then plated into poly-L-lysine-coated 384-well white clear-bottom cell culture plates in DMEM containing 1% dialysed FBS at a density of 10,000–15,000 cells per well. After incubation for 6 h, the plates were added with drug solutions prepared in DMEM containing 1% dialysed FBS for overnight incubation. On the day of assay, medium and drug solutions were removed and 20 μl per well of BrightGlo reagent (Promega) was added. The plates were further incubated for 20 min at room temperature and counted using the Wallac TriLux Microbeta counter (PerkinElmer). The results were analysed using GraphPad Prism 9.1. Each experiment was performed in triplicate and functional […] values were determined from the mean of three independent experiments.

hCB1 [4] = biological target: T1, hCB1; test: bioSens-All ebBRET effector biosensor signaling profiling, HEK293; type: cell-based; parameters: host or cells: HEK293 (HEK293SL clone), transient; conditions: for RE, relative efficacy: versus CP-55,940
hCB2 = hCB2 (Homo sapiens, UniProt P34972); test: as above; type: cell-based; parameters: host or cells: HEK293 (HEK293SL clone), transient; conditions: for RE, relative efficacy: versus CP-55,940
Chain of hCB2 (P34972 whole entry): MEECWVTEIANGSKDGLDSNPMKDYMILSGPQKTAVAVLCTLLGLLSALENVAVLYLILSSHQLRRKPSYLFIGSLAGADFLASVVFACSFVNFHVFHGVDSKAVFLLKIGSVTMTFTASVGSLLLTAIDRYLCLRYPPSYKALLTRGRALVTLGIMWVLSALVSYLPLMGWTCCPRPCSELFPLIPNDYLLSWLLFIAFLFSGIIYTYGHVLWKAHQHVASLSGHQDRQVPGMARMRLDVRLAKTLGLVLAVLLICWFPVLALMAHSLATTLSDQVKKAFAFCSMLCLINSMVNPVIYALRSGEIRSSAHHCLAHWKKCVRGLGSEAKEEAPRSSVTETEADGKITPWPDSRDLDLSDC

CB1 = biological target: T2, CB1 (Rattus norvegicus, UniProt P20272); test: Radioligand competition binding with [3H]-CP-55,940, rat brain membranes; conditions: for LE: ligand efficiency; for LLE: lipophilic ligand efficiency; for Emax: maximal radioligand displacement, read-out: rCB1 binding Emax [SEM]; for pKi: [3H]-CP-55,940 competition, rat brain membranes
T2 construct: membrane preparations from rat brain (source of CB1); tissue Bioivt RAT00BRAINMZN; host or cells: rat brain
T2 sequence (P20272 whole entry): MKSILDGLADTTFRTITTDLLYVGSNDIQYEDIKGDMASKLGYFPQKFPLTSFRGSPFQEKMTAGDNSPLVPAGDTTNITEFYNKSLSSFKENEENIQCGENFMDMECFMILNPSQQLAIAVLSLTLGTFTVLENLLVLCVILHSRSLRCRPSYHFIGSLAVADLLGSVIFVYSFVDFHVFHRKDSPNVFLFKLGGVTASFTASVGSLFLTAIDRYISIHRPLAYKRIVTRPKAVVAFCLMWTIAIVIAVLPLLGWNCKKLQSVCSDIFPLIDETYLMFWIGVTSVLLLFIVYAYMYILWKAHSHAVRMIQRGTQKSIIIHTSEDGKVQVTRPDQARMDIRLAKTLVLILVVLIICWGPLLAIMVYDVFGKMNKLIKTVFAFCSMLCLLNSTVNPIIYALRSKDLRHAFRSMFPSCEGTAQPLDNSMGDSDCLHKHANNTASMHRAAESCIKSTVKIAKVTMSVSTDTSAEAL
Description: The results were analyzed using nonlinear regression to determine the IC50 and Ki values for each ligand (Prism by GraphPad Software, Inc., San Diego, CA). The Ki values are expressed as the mean of two to three experiments each performed in triplicate.

[5] = HEK293, read-out: hCB2 Barr2 + GRK2 Emax [95% CI]
[6] = HEK293, read-out: hCB2 Gi1 Emax [95% CI]
[7] = HEK293, read-out: hCB2 Gi2 Emax [95% CI]
[8] = HEK293, read-out: hCB2 GoB Emax [95% CI]
[9] = HEK293, read-out: hCB1 Barr2 + GRK2 Emax [95% CI]
[10] = HEK293, read-out: hCB1 G13 Emax [95% CI]
[11] = HEK293, read-out: hCB1 G15 Emax [95% CI]
[12] = HEK293, read-out: hCB1 Gi1 Emax [95% CI]
[13] = HEK293, read-out: hCB1 Gi2 Emax [95% CI]
[14] = HEK293, read-out: hCB1 GoB Emax [95% CI]
[15] = HEK293, read-out: hCB1 Gz Emax [95% CI]
[16] = hCB1 Barr2 + GRK2 pEC50 [95% CI], ßarrestin-2 PM recruitment sensor with GRK2
[17] = hCB1 G13 EC50 [95% CI], G13 sensor
[18] = hCB1 G15 pEC50 [95% CI], G15 sensor
[19] = hCB1 Gi1 EC50 [95% CI], Gi1 sensor
[20] = hCB1 Gi2 EC50 [95% CI], Gi2 sensor
[21] = hCB1 GoB EC50 [95% CI], GoB sensor
[22] = hCB1 GoB pEC50 [95% CI], GoB sensor
[23] = hCB1 Gz pEC50 [95% CI], Gz sensor
[24] = HEK293, read-out: hCB2 Gz Emax [95% CI]
[25] = hCB1 Gi1 pEC50 [95% CI], Gi1 sensor

Structure (SMILES): CCCCCCC(C)(C)c1ccc([C@@H]2C[C@H](O)CC[C@H]2CCCO)c(O)c1 [CP-55,940, reference compound]
- dose with increased latencies (C56BL/6 mice [1]; Hargreaves test): 0.2 mg/kg
- dose with increased latencies (C56BL/6 mice [1]; tail flick test): 0.5 mg/kg
- motor effect versus vehicle at analgesic doses (C56BL/6 mice [2]): caused motor impairment in both the rotarod and open field tests
- Emax (hCB1 [3]): 100%
- Emax (hCB1 [4]; HEK293, read-out: hCB1 Barr2 + GRK2 Emax [95% CI], ßarrestin-2 sensor with GRK2, normalized to CP-55,940): 89%
- Emax (hCB1 [4]; HEK293, read-out: hCB1 G13 Emax [95% CI], G13 sensor, normalized to CP-55,940): 100%
- Emax (hCB1 [4]; HEK293, read-out: hCB1 G15 Emax [95% CI], G15 sensor, normalized to CP-55,940): 100%
- Emax (hCB1 [4]; HEK293, read-out: hCB1 Gi1 Emax [95% CI], Gi1 sensor, normalized to CP-55,940): 100%
- Emax (hCB1 [4]; HEK293, read-out: hCB1 Gi2 Emax [95% CI], Gi2 sensor, normalized to CP-55,940): 100%
- Emax (hCB1 [4]; HEK293, read-out: hCB1 GoB Emax [95% CI], GoB sensor, normalized to CP-55,940): 100%
- Emax (hCB2; [5]): 100%
- Emax (hCB2; [6]): 100%
- Emax (hCB2; [7]): 100%
- Emax (hCB2; [8]): 100%

Structure (SMILES): COC(=O)C(C)(NC(=O)c1cc(C)n(-c2cccc(C(F)(F)F)c2)n1)c1cccs1 (stereo not drawn) [‘4042]
- LE (CB1): 0.41
- LLE (CB1): 4.6
- Emax (CB1): 99%
- pKi (CB1; rCB1 binding Ki [95% CI]): 8.72 and 8.73
- tail flick latency of co-injection with morphine (3.0 mg/kg, i.p.) versus morphine alone (C56BL/6 mice [1]): significantly longer tail flick latencies
- analgesic effect under CB1R knockout or AM251 (5.0 mg/kg) pre-treatment (C56BL/6 mice [1]): completely blocked
- decrease of analgesic effects by CB2R knockout or SR-144528 (1.0 mg/kg) (C56BL/6 mice [1]; tail flick or Hargreaves assays): neither
- lowest dose with significant analgesia (latencies above baseline) (C56BL/6 mice [1]): 0.1 mg/kg
- motor effect versus vehicle at analgesic doses (C56BL/6 mice [2]): no significant differences
- pEC50 (hCB1 [3]): 7.97
- Emax (hCB1 [3]): 102%
- Emax (hCB1 [4]; [9]): 72%
- Emax (hCB1 [4]; [10]): 64%
- Emax (hCB1 [4]; [11]): 105%
- Emax (hCB1 [4]; [12]): 102%
- Emax (hCB1 [4]; [13]): 101%
- Emax (hCB1 [4]; [14]): 103%
- Emax (hCB1 [4]; [15]): 97%
- pEC50 (hCB1 [4]; [16]): 8.44
- RE, relative efficacy (hCB1 [4]; hCB1 G13): 0.91
- pEC50 (hCB1 [4]; [17]): 8.68
- pEC50 (hCB1 [4]; hCB1 G13 pEC50 [95% CI], G13 sensor): 8.69
- RE, relative efficacy (hCB1 [4]; hCB1 G15): 0.74
- pEC50 (hCB1 [4]; [18]): 9.43
- RE, relative efficacy (hCB1 [4]; hCB1 Gi1): 0.97
- pEC50 (hCB1 [4]; [19]): 9.32
- RE, relative efficacy (hCB1 [4]; hCB1 Gi2): 1.01
- pEC50 (hCB1 [4]; [20]): 9.25
- pEC50 (hCB1 [4]; [21]): 9.19
- pEC50 (hCB1 [4]; [22]): 9.20
- RE, relative efficacy (hCB1 [4]; hCB1 GoB): 1.04
- pEC50 (hCB1 [4]; [23]): 9.37
- RE, relative efficacy (hCB1 [4]; hCB1 Gz): 0.62
- RE, relative efficacy (hCB1 [4]; hCB1 ßarr2 + GRK2): 0.81
- Emax (hCB2; [5]): 33%
- Emax (hCB2; [6]): 82%
- Emax (hCB2; [7]): 70%
- Emax (hCB2; [8]): 61%
- Emax (hCB2; [24]): 56%
- pEC50 (hCB2; hCB2 Barr2 + GRK2 EC50 [95% CI]): 8.26
- RE, relative efficacy (hCB2; hCB2 Gi1): 0.63
- pEC50 (hCB2; hCB2 Gi1 EC50 [95% CI]): 8.57
- pEC50 (hCB2; hCB2 Gi1 pEC50 [95% CI]): 8.58
- RE, relative efficacy (hCB2; hCB2 Gi2): 0.59
- pEC50 (hCB2; hCB2 Gi2 pEC50 [95% CI]): 8.90
- pEC50 (hCB2; hCB2 GoB pEC50 [95% CI]): 8.60
- RE, relative efficacy (hCB2; hCB2 GoB): 0.47
- pEC50 (hCB2; hCB2 Gz EC50 [95% CI]): 8.87
- RE, relative efficacy (hCB2; hCB2 Gz): 0.38
- RE, relative efficacy (hCB2; hCB2 ßarr2 + GRK2): 0.82

Structure (SMILES): COC(=O)[C@@](C)(NC(=O)c1cc(C)n(-c2cccc(C(F)(F)F)c2)n1)c1cccs1 [‘1350]
- Emax (CB1): 106%
- pKi (CB1; rCB1 binding Ki [95% CI]): 9.02
- pKi (CB1; rCB1 binding pKi [95% CI]): 9.00
- tail flick latency of co-injection with morphine (3.0 mg/kg, i.p.) versus morphine alone (C56BL/6 mice [1]): significantly longer tail flick latencies
- analgesic effect under CB1R knockout or AM251 (5.0 mg/kg) pre-treatment (C56BL/6 mice [1]): completely blocked
- lowest dose with significant analgesia (latencies above baseline) (C56BL/6 mice [1]): 0.1 mg/kg
- dose showing locomotor deficits (C56BL/6 mice [2]; open field test): 0.2 mg/kg
- Emax (hCB1 [4]; [9]): 63%
- Emax (hCB1 [4]; [10]): 56%
- Emax (hCB1 [4]; [11]): 99%
- Emax (hCB1 [4]; [12]): 92%
- Emax (hCB1 [4]; [13]): 95%
- Emax (hCB1 [4]; [14]): 98%
- Emax (hCB1 [4]; [15]): 94%
- pEC50 (hCB1 [4]; [16]): 8.66
- RE, relative efficacy (hCB1 [4]; hCB1 G13): 1.64
- pEC50 (hCB1 [4]; [17]): 9.08
- RE, relative efficacy (hCB1 [4]; hCB1 G15): 1.14
- pEC50 (hCB1 [4]; [18]): 9.66
- RE, relative efficacy (hCB1 [4]; hCB1 Gi1): 1.98
- pEC50 (hCB1 [4]; [25]): 9.63
- RE, relative efficacy (hCB1 [4]; hCB1 Gi2): 1.89
- pEC50 (hCB1 [4]; [20]): 9.55
- pEC50 (hCB1 [4]; hCB1 Gi2 pEC50 [95% CI], Gi2 sensor): 9.54
- pEC50 (hCB1 [4]; [22]): 9.54
- RE, relative efficacy (hCB1 [4]; hCB1 GoB): 2.24
- pEC50 (hCB1 [4]; [23]): 9.46
- RE, relative efficacy (hCB1 [4]; hCB1 Gz): 0.77
- RE, relative efficacy (hCB1 [4]; hCB1 ßarr2 + GRK2): 1.16
- Emax (hCB2; [5]): 30%
- Emax (hCB2; [6]): 74%
- Emax (hCB2; [7]): 61%
- Emax (hCB2; [8]): 59%
- Emax (hCB2; [24]): 52%
- pEC50 (hCB2; hCB2 Barr2 + GRK2 pEC50 [95% CI]): 8.38
- RE, relative efficacy (hCB2; hCB2 Gi1): 0.29
- pEC50 (hCB2; hCB2 Gi1 EC50 [95% CI]): 8.45
- RE, relative efficacy (hCB2; hCB2 Gi2): 0.40
- pEC50 (hCB2; hCB2 Gi2 pEC50 [95% CI]): 8.79
- pEC50 (hCB2; hCB2 GoB pEC50 [95% CI]): 8.58
- RE, relative efficacy (hCB2; hCB2 GoB): 0.40
- pEC50 (hCB2; hCB2 Gz EC50 [95% CI]): 8.59
- pEC50 (hCB2; hCB2 Gz pEC50 [95% CI]): 8.58
- RE, relative efficacy (hCB2; hCB2 Gz): 0.22
- RE, relative efficacy (hCB2; hCB2 ßarr2 + GRK2): 0.92

Structure (SMILES): COC(=O)C(NC(=O)c1cc(C)n(-c2cccc(C(F)(F)F)c2)n1)c1cccs1 (stereo not drawn) [‘60154]
- LE (CB1): 0.36
- LLE (CB1): 3.5
- Emax (CB1): 110%
- pKi (CB1; rCB1 binding Ki [95% CI]): 7.35
- pKi (CB1; rCB1 binding pKi [95% CI]): 7.40
- pEC50 (hCB1 [3]): 6.10
- Emax (hCB1 [3]): 39%
- Emax (hCB1 [4]; [12]): 92%
- Emax (hCB1 [4]; [14]): 100%
- Emax (hCB1 [4]; [15]): 121%
- pEC50 (hCB1 [4]; [19]): 8.60
- pEC50 (hCB1 [4]; [25]): 7.60
- pEC50 (hCB1 [4]; [21]): 7.74
- pEC50 (hCB1 [4]; hCB1 Gz EC50 [95% CI], Gz sensor): 7.76
